Measurements from patent US10544120B2, “Biaryl kinase inhibitors” (BRISTOL-MYERS SQUIBB COMPANY, priority 2015, dated 2020).

Biological target: GST-Xa-hAAK1 (Homo sapiens (Human), UniProt Q2M2I8)
Test: AAK1 Kinase Assay
Type: biochemical
Conditions: bacterially expressed GST-Xa-hAAK1 3.5 nM; ATP 22 μM; fluoresceinated peptide 1.5 μM; 3 hours at room temperature; Caliper LabChip 3000
In short: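 Bacterially expressed GST-Xa-hAAK1 was combined with substrates and compounds (eleven concentrations) and incubated 3 h at room temperature, then stopped with EDTA. Fluorescent substrate and phosphorylated product were separated electrophoretically (Caliper LabChip), and IC50 values came from non-linear regression.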

Chain of GST-Xa-hAAK1 (Q2M2I8 whole entry): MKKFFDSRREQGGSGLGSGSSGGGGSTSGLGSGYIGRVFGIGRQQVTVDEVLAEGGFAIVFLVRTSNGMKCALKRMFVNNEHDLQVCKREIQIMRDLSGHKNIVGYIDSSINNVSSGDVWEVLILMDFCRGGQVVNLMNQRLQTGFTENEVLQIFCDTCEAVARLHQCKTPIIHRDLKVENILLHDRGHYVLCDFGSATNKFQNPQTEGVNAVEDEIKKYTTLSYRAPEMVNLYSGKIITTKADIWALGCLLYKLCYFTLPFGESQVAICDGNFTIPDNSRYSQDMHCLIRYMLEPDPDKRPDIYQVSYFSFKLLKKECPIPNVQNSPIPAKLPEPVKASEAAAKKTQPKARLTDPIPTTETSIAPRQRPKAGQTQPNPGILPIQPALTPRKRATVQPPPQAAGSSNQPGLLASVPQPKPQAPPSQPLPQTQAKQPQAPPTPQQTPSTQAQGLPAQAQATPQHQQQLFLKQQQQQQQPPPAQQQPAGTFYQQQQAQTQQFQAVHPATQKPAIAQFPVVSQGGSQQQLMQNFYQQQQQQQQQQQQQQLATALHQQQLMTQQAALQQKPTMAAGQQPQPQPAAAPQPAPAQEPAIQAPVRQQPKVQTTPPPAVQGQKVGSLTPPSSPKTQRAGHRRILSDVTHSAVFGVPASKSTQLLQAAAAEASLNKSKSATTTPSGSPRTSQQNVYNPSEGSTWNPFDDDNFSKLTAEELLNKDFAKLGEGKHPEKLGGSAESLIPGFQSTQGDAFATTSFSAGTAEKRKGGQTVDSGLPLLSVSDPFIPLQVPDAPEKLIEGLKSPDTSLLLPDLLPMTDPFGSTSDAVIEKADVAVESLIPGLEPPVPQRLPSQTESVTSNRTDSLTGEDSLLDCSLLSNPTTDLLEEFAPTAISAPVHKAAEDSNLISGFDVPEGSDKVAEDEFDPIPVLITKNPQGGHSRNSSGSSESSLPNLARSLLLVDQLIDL

| Structure (SMILES) | IC50 [nM] |
| --- | --- |
| CCc1cc(-c2ccc(OC[C@@](C)(N)CC(C)C)c(C(F)(F)F)c2)ncn1 [Example 444, (S)-1-(4-(6-ethylpyrimidin-4-yl)-2-(trifluoromethyl)phenoxy)-2,4-dimethylpentan-2-amine] | 153 |
| Cc1cc(-c2cnc(OC[C@@](C)(N)CC(C)C)c(Cl)c2)ncn1 [Example 445, (S)-1-((3-chloro-5-(6-methylpyrimidin-4-yl)pyridin-2-yl)oxy)-2,4-dimethylpentan-2-amine] | 62 |
| Cc1cc(-c2cnc(OC[C@@](C)(N)CC(C)C)c(C)c2)ncn1 [Example 446, (S)-2,4-dimethyl-1-((3-methyl-5-(6-methylpyrimidin-4-yl)pyridin-2-yl)oxy)pentan-2-amine] | 317 |
| CCc1cc(-c2cnc(OC[C@@](C)(N)CC(C)C)c(C)c2)ncn1 [Example 447, (S)-1-((5-(6-ethylpyrimidin-4-yl)-3-methylpyridin-2-yl)oxy)-2,4-dimethylpentan-2-amine] | 304 |
| Cc1cc(-c2cc(C)c(OC[C@@](C)(N)CC(C)C)cn2)ncn1 [Example 450, (S)-2,4-dimethyl-1-((4-methyl-6-(6-methylpyrimidin-4-yl)pyridin-3-yl)oxy)pentan-2-amine] | 126 |
| CC(C)C[C@](C)(N)COc1ccc(-c2ccnc(C(F)(F)F)n2)cc1C#N [Example 474, (S)-2-(2-amino-2,4-dimethylpentyloxy)-5-(2-(trifluoromethyl)pyrimidin-4-yl)benzonitrile] | 6.6 |
| Cc1cc(-c2ccc(OC[C@@](C)(N)CC(C)C)c(C(F)(F)F)c2)nc(C)n1 [Example 479, (S)-1-(4-(2,6-dimethylpyrimidin-4-yl)-2-(trifluoromethyl)phenoxy)-2,4-dimethylpentan-2-amine] | 533 |
| COC(=O)Nc1nccc(-c2ccc(OC[C@@](C)(N)CC(C)C)cc2)n1 [Example 505, (S)-methyl (4-(4-((2-amino-2,4-dimethylpentyl)oxy)phenyl)pyrimidin-2-yl)carbamate] | 8.7 |
| COC(=O)Nc1cc(-c2cc(F)c(OC[C@@](C)(N)CC(C)C)cc2F)ncn1 [Example 507, (S)-methyl (6-(4-((2-amino-2,4-dimethylpentyl)oxy)-2,5-difluorophenyl)pyrimidin-4-yl)carbamate] | 5 |
| CC(C)C[C@](C)(N)COc1cc(F)c(-c2ccnc(C(F)F)c2)cc1F [Example 510, (S)-1-(4-(2-(difluoromethyl)pyridin-4-yl)-2,5-difluorophenoxy)-2,4-dimethylpentan-2-amine] | 19 |

Other lines, results leading:

| IC50 [nM] | Structure (SMILES) |
| --- | --- |
| 2.7 | Cc1nc(-c2ccnc(Cl)n2)ccc1OC[C@@](C)(N)CC(C)C [Example 451, (S)-1-((6-(2-chloropyrimidin-4-yl)-2-methylpyridin-3-yl)oxy)-2,4-dimethylpentan-2-amine] |
| 2.4 | Cc1nccc(-c2ccc(OC[C@@](C)(N)CC(C)C)c(C(F)(F)F)n2)n1 [Example 454, (S)-2,4-dimethyl-1-((6-(2-methylpyrimidin-4-yl)-2-(trifluoromethyl)pyridin-3-yl)oxy)pentan-2-amine] |
| 1.5 | Cc1nccc(-c2ccc(OC[C@@](C)(N)CC(C)C)c(C#N)c2)n1 [Example 458, (S)-2-(2-amino-2,4-dimethylpentyloxy)-5-(2-methylpyrimidin-4-yl) benzonitrile] |
| 21 | Cc1nccc(-c2ccc(OC[C@@](C)(N)CC(C)C)c(F)c2)n1 [Example 462, (S)-1-(2-fluoro-4-(2-methylpyrimidin-4-yl)phenoxy)-2,4-dimethylpentan-2-amine] |
| 3.6 | CC(C)C[C@](C)(N)COc1ccc(-c2ccnc(C(F)(F)F)n2)cc1Cl [Example 465, (S)-1-(2-chloro-4-(2-(trifluoromethyl)pyrimidin-4-yl)phenoxy)-2,4-dimethylpentan-2-amine] |
| 1.5 | Cc1nccc(-c2ccc(OC[C@@](C)(N)CC(C)C)c(Cl)c2)n1 [Example 469, (S)-1-(2-chloro-4-(2-methylpyrimidin-4-yl)phenoxy)-2,4-dimethylpentan-2-amine] |
| 18 | CC(C)C[C@](C)(N)COc1ccc(-c2ccnc(C(C)C)n2)cc1Cl [Example 480, (S)-1-(2-chloro-4-(2-isopropylpyrimidin-4-yl)phenoxy)-2,4-dimethylpentan-2-amine] |
| 3.2 | Cc1nccc(-c2ccc(OC[C@@](C)(N)CC(C)C)c(C)n2)n1 [Example 484, (S)-2,4-dimethyl-1-(2-methyl-6-(2-methylpyrimidin-4-yl)pyridin-3-yloxy)pentan-2-amine] |
| 1290 | Cc1nccc(-c2cc(C#N)c(OC[C@@](C)(N)CC(C)C)cn2)n1 [Example 487, (S)-5-(2-amino-2,4-dimethylpentyloxy)-2-(2-methylpyrimidin-4-yl)isonicotinonitrile] |
| 789 | Cc1nccc(-c2ccc(OCC(N)(CC(C)C)C(F)(F)F)c(C)n2)n1 (centres unmarked) [Example 491, 1,1,1-trifluoro-4-methyl-2-(((2-methyl-6-(2-methylpyrimidin-4-yl)pyridin-3-yl)oxy)methyl)pentan-2-amine] |
| 134 | Cc1nccc(-c2cc(F)c(OC[C@@](C)(N)CC(C)C)cc2F)n1 [Example 506, (S)-1-(2,5-difluoro-4-(2-methylpyrimidin-4-yl)phenoxy)-2,4-dimethylpentan-2-amine] |
| 25 | COC(=O)Nc1nccc(-c2cc(F)c(OC[C@@](C)(N)CC(C)C)cc2F)n1 [Example 508, (S)-methyl (4-(4-((2-amino-2,4-dimethylpentyl)oxy)-2,5-difluorophenyl)pyrimidin-2-yl)carbamate] |
| 5.1 | Cc1nccc(-c2ccc(OC[C@@](C)(N)CC(C)C)c(F)c2F)n1 [Example 511, (S)-1-(2,3-difluoro-4-(2-methylpyrimidin-4-yl)phenoxy)-2,4-dimethylpentan-2-amine] |
